Assays:
[1] = system: HRas driven liver progenitor cell line; assay: in vitro tracer uptake in senescent vs control HRas driven liver progenitor cells (gamma counter); format: cell-based; details: 3.7-7.4 MBq of tracer, 50 minutes
Protocol: (§1) As the second model, transgenic liver progenitor cell line (Hras) was used for subcutaneous allografts in nude mice. The cell line expresses Hras^G12v and p53shRNA under doxycycline (doxy) conditions. After the removal of doxycycline, the p53 mRNA can be restored and translated to p53 protein. The high amount of p53 triggers senescence. The animals bearing Hras tumors received doxy-water (0.2 mg/ml) for tumor development and 14 days, after removal of doxy-water, the PET/MRT scans are performed with compound 9.
(§2) HCT116 (FIG. 4a) and Hras cells (FIG. 4b) are treated with […] of tracer and incubated for 50 minutes. The cells are measured in a gamma-counter, with the activity normalized to the number of cells used.
(§3) The PET-tracer is tested in two different models in vitro. In HCT116 cells senescence is induced by overnight incubation with doxorubicin, followed by 4 days of culture under normal conditions. Senescence in a HRas driven liver progenitor cell line with a doxycycline regulatable p53-specific shRNA. After induction of senescence, both cell lines are incubated with 3.7-7.4 MBq of tracer for 50 minutes. The cells are then washed, counted and measured in a gamma counter. The activity taken up by the cells is analyzed and normalized to a million cells.

HCT116 cells = assay: in vitro tracer uptake in senescent vs control HCT116 cells (gamma counter); format: cell-based; details: 3.7-7.4 MBq of tracer, 50 minutes
Protocol: as §2, §3

[2] = stability of tracer 9 in mouse serum (radio-HPLC); format: in vitro ADME; details: 37° C., 1 hour
Protocol: The tracer 9 is incubated at 37° C. in mouse serum to assess its stability. After 1 hour, 2 volume equivalents of acetonitrile are added and the mixture is centrifuged for 5 minutes. The supernatant is examined directly using radio-HPLC. Serum stability of tracer 9 after 1 h (FIG. 3a) vs tracer 9 (FIG. 3b) is derivable from FIG. 3.

beta-galactosidase = details: 30° C., 30 minutes, citrate buffer pH 5.5
Protocol: To assess whether tracer 9 is a substrate of beta-galactosidase, it is incubated at 30° C. for 30 minutes in citrate buffer of pH 5.5 containing commercially available betagalactosidase (Sigma). The reaction is stopped by adding 2 volume equivalents of acetonitrile, followed by 5 minutes of centrifugation. The supernatant is examined directly using radio-HPLC. […] The expected radioactive metabolite is compared with the authentic non-radioactive standard (FIG. 2). […] Compound 11 is galactose.

HCT116 tumors = assay: in vivo PET tracer uptake in s.c. HCT116 xenograft tumors, doxorubicin-induced senescence; design: species or system nude mice; details: for TMR (tumor-to-muscle ratio) / in vivo tracer uptake: PET; for in vivo tracer uptake: i.v.
Protocol: A xenograft model of colorectal cancer cell line (HCT116) with therapy induced senescence, doxorubicin is used as a chemotherapeutic. Senescence is induced in HCT116 xenograft tumors by intravenous (i.v.) administration of doxorubicin (10 mg/kg). Through tail vain of the mice, 5 days later dynamic PET/MRT scans (1 h) with compound 9 are performed.
(§4) In vivo tests are performed in nude mice bearing s.c. HCT116 or HRas driven liver progenitor cells. Mice bearing HCT116 tumors are treated with doxorubicin (10 mg/Kg bodyweight) and imaged 4 days after the onset of senescence. Mice bearing Hras driven tumor are supplied with doxycycline in their drinking water, which has been later removed to induce senescence. After induction of senescence, the tracer is administered i.v. and PET scans are performed. The %ID/cc and tumor-to-muscle ratios are determined through quantitative analysis of the PET data, permitting evaluation of the tracers. In vitro senescent HCT116 cells show an uptake of 11 kBq/1 mio cells, while the uptake in non-senescent control cells is only 4 kBq/1 mio cells.
The in vivo tracer uptake in senescent and non-senescent HCT116 tumors (FIG. 5) is 1.7+/−0.7 (n=7) vs 1.1+/−0.4 (n=5) %ID/cc respectively; the respective TMR values are 1.7 and 1.1. […] Both %ID/cc and TMR are higher in senescent vs control tumors. The excised tumors are subjected to ex vivo analyses.

Hras tumors = assay: in vivo PET tracer uptake in s.c. HRas driven tumors, senescence by doxycycline removal; design: species or system nude mice; details: for TMR (tumor-to-muscle ratio) / tracer uptake: PET; for tracer uptake: i.v.
Protocol: as §1, §4
Both %ID/cc and TMR are higher in senescent vs control tumors. The excised tumors are subjected to ex vivo analyses. […] Senescent tumor slices also show higher X-Gal staining than control sections. The nonsenescent tumor expresses GFP, which can be visualized with optical imaging.

SMILES: OC[C@H]1O[C@@H](Oc2cccnc2[18F])[C@H](O)[C@@H](O)[C@H]1O [tracer 9]
- uptake in senescent cells compared to controls ([1]; Hras cells, activity normalized to number of cells): significantly higher uptake compared to the controls
- uptake ([1]; non-senescent HRas driven liver progenitor cells): 63 kBq/1 mio cells
- uptake ([1]; senescent HRas driven liver progenitor cells): 192 kBq/1 mio cells
- uptake in senescent cells compared to controls (HCT116 cells; HCT116 cells, activity normalized to number of cells): significantly higher uptake compared to the controls
- uptake (HCT116 cells; non-senescent control HCT116 cells): 4 kBq/1 mio cells
- uptake (HCT116 cells; senescent HCT116 cells): 11 kBq/1 mio cells
- serum stability [2]: integrity remains largely intact
- conversion by beta-galactosidase (radioactive metabolite by radio-HPLC) (beta-galactosidase): produces the radioactive metabolite with the same retention time as the non-radioactive 2-fluoropyridinol
- autoradiography of excised tumors, ex vivo (HCT116 tumors; HCT116 tumor sections, senescent vs control): higher tracer uptake in the senescent tumor section vs control
- TMR (tumor-to-muscle ratio) (HCT116 tumors; non-senescent HCT116 tumors): 1.1
- in vivo tracer uptake (HCT116 tumors; non-senescent HCT116 tumors, n=5): 1.1+/−0.4 %ID/cc
- TMR (tumor-to-muscle ratio) (HCT116 tumors; senescent HCT116 tumors): 1.7
- in vivo tracer uptake (HCT116 tumors; senescent HCT116 tumors, n=7): 1.7+/−0.7 %ID/cc
- autoradiography of excised tumors, ex vivo (Hras tumors; HRas tumor sections, senescent vs control): higher tracer uptake in the senescent tumor section vs control
- TMR (tumor-to-muscle ratio) (Hras tumors; control HRas tumors): 1.2
- tracer uptake (Hras tumors; control HRas tumors, n=11): 0.9+/−0.3 %ID/cc
- TMR (tumor-to-muscle ratio) (Hras tumors; senescent HRas tumors): 2.1
- tracer uptake (Hras tumors; senescent HRas tumors, n=16): 1.5+/−0.3 %ID/cc
